The source of these data is patent publication US6004960A, “Pyridazinones as inhibitors of cyclooxygenase-2” (Merck Frosst Canada, Inc., priority 1998, dated 1999).

Experiment [1] deals with COX-1 (Homo sapiens, UniProt P23219). As to the kind of experiment: Human whole blood assay, COX-1 (clotting-induced TxB2 production). Also on record: platelets in whole blood contain a large amount of the COX-1 enzyme; from tissue; host or cells: fresh human whole blood (platelets), allowed to clot. As to conditions: clotting-induced TxB2, 1 hour at 37° C, read-out: COX-1 (IC50 μM) HWB. In kind it is cell-based. Here is the method:
Human whole blood provides a protein and cell-rich milieu appropriate for the study of biochemical efficacy of anti-inflammatory compounds such as selective COX-2 inhibitors. […] This is consistent with the observation that COX-2 inhibitors have no effect on PGE2 production in normal blood. These inhibitors are active only after incubation of human whole blood with LPS, which induces COX-2. This assay can be used to evaluate the inhibitory effect of selective COX-2 inhibitors on PGE2 production. As well, platelets in whole blood contain a large amount of the COX-1 enzyme. Immediately following blood clotting, platelets are activated through a thrombin-mediated mechanism. This reaction results in the production of thromboxane B2 (TxB2) via activation of COX-1. Thus, the effect of test compounds on TxB2 levels following blood clotting can be examined and used as an index for COX-1 activity. Therefore, the degree of selectivity by the test compound can be determined by measuring the levels of PGE2 after LPS induction (COX-2) and […] following blood clotting (COX-1) in the same assay.
B. COX-1 (Clotting-induced TxB2 production)
Fresh blood is collected into vacutainers containing no anticoagulants. […] The tubes are vortexed and incubated at 37° C. for 1 hour to allow blood to clot. At the end of incubation, serum is obtained by centrifugation (12,000×g for 5 min.). A 100 μL aliquot of serum is mixed with 400 μL of methanol for protein precipitation. The supernatant is obtained and is assayed for T×B2 using a enzyme immunoassay kit (Cayman, #519031) according to the manufacturer's instruction.

Experiment [2] concerns the target T1, COX-2 (Homo sapiens, UniProt P35354).
T1 sequence (P35354 18-604): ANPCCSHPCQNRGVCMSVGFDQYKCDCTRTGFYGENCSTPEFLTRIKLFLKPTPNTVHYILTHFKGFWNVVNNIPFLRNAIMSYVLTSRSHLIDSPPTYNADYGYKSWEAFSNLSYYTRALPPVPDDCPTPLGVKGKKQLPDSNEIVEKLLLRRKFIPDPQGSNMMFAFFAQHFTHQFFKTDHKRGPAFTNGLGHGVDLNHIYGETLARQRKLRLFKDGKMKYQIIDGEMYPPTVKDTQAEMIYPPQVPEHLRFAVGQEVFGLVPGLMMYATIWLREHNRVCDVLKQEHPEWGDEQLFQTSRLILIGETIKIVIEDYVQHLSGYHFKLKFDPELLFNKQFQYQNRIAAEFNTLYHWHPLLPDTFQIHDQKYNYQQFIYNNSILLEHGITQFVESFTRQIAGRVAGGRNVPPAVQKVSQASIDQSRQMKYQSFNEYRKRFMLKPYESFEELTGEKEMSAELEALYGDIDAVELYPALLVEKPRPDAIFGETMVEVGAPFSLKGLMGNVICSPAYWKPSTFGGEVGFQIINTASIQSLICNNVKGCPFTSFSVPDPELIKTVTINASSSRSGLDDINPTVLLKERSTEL
As to the kind of experiment: Human whole blood assay, COX-2 (LPS-induced PGE2 production). In kind it is cell-based. As to conditions: LPS-induced PGE2, 24 hours at 37° C, read-out: COX-2 (IC50 μM) HWB. More on the design: incubation of human whole blood with LPS, which induces COX-2; from tissue; host or cells: fresh human whole blood (volunteers), incubated with LPS. The source says: As well, platelets in whole blood contain a large amount of the COX-1 enzyme. Immediately following blood clotting, platelets are activated through a thrombin-mediated mechanism. This reaction results in the production of thromboxane B2 (TxB2) via activation of COX-1. Thus, the effect of test compounds on TxB2 levels following blood clotting can be examined and used as an index for COX-1 activity. Therefore, the degree of selectivity by the test compound can be determined by measuring the levels of PGE2 after LPS induction (COX-2) and […] following blood clotting (COX-1) in the same assay.
A. COX-2 (LPS-induced PGE2 production)
Fresh blood is collected in heparinized tubes by venipuncture from both male and female volunteers. The subjects have no apparent inflammatory conditions and have not taken any NSAIDs for at least 7 days prior to blood collection. Plasma is immediately obtained from a 2mL blood aliquot to use as blank (basal levels of PGE2). The remaining blood is incubated with LPS (100 μg/ml final concentration, Sigma Chem, #L-2630 from E. coli; diluted in 0.1% BSA (Phosphate buffered saline) for 5 minutes at room temperature. Five hundred μL aliquots of blood are incubated with either 2μL of vehicle (DMSO) or 2 μL of a test compound at final concentrations varying from 10nM to 30 μM for 24 hours at 37° C. At the end of the incubation, the blood is centrifuged at 12,000×g for 5 minutes to obtain plasma. A 100 μL aliquot of plasma is mixed with 400 μL of methanol for protein precipitation. The supernatant is obtained and is assayed for PGE2 using a radioimmunoassay kit (Amersham, RPA#530) after conversion of PGE2 to its methyl oximate derivative according to the manufacturer's procedure. […]

Chain of COX-1 (P23219 24-599): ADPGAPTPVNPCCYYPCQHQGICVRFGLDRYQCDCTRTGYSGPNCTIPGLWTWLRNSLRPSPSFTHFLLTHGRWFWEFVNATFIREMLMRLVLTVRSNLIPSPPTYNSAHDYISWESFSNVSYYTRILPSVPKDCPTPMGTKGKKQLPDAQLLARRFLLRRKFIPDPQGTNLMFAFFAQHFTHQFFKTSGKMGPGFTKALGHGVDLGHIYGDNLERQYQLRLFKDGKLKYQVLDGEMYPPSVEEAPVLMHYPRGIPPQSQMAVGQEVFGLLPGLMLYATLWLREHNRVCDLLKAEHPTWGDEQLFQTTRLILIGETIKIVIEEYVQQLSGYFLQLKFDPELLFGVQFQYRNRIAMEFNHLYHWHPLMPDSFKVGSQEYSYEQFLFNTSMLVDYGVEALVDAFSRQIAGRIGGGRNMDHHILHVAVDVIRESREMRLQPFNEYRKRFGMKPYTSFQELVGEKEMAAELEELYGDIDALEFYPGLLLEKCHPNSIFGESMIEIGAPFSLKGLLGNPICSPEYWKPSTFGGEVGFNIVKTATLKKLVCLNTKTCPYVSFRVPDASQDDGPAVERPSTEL

Take `CS(=O)(=O)c1ccc(-c2cnn(Cc3ccccc3)c(=O)c2-c2cccnc2)cc1` [Example 28, 2-Benzyl-5-(4-methylsulfonyl)phenyl-4-(3-pyridyl)-2H-pyridazin-3-one]: the IC50 was determined as 56 µM in experiment [1] and 1.5 µM in experiment [2].

For orientation: IC50 means the concentration that inhibits the measured activity by half.
